# Data from ChEMBL document CHEMBL5614440, “Development of Novel Indole-Based Covalent Inhibitors of TEAD as Potential Antiliver Cancer Agents” (J Med Chem, 2024).
# Key:
# [1] = test system: Huh-7; assay: Antiproliferative activity against human Huh-7 cells incubated for 3 days by CCK8 assay; type: functional, cell-based; details: Huh-7, 72 h
# [2] = test system: HEK293T; assay: Inhibition of TEAD (unknown origin) expressed in HEK293T cells transfected with 8xGTIIC-luciferase at 10 uM by dual luciferase reporter assay relative to control; type: cell-based; details: Homo sapiens
# [3] = Antiproliferative activity against mouse AML12 cells at 10 uM incubated for 3 days by CCK8 assay; type: toxicity, cell-based; details: time 3 day
# [4] = Inhibition of TEAD transcription in human Huh-7 cells transfected with 8xGTIIC-luciferase by dual luciferase reporter assay; type: cell-based
# [5] = test system: Huh-7; assay: Antitumor activity against human Huh-7 cells xenografted in NSG mouse assessed as tumor growth inhibition at 100 mg/kg, po administered every 3 days for 24 days and measured every 3 days; type: functional; details: Huh-7, 576 h, time 24 day, read-out: TGI
# [6] = test system: Huh-7; assay: Antiproliferative activity against human Huh-7 cells at 10 uM incubated for 3 days by CCK8 assay; type: functional; details: time 3 day
Compound,IC50 [1],inhibition [2],also measured
N#C/C(=C\c1c[nH]c2cc(Cl)c(OCc3ccc4ccccc4c3)cc12)C(N)=O,4.1 µM,47.3%,–
O=C(CCl)c1c[nH]c2cc(Cl)c(OCc3ccc(C(F)(F)F)c(F)c3)cc12,1.8 µM,–,–
Clc1cc2[nH]ccc2cc1OCc1ccccc1,32.5 µM,68.3%,"inhibition at 72 h, 10 µM [3]: 20.3%; IC50 [4]: 5 µM"
C=CC(=O)NCc1c[nH]c2cc(Cl)c(OCc3ccc4ccccc4c3)cc12,30.2 µM,1.5%,–
CNC(=O)c1cc(Oc2ccc(NC(=O)Nc3ccc(Cl)c(C(F)(F)F)c3)cc2)ccn1 [SORAFENIB],–,–,inhibition in vivo at 100 mg/kg [5]: 76%
N#C/C(=C\c1c[nH]c2cc(Cl)c(OCc3cccc4ccccc34)cc12)C(N)=O,–,51.3%,Activity [6]: 70%
O=C(CCl)c1c[nH]c2cc(Cl)c(OCc3ccc(C(F)(F)F)cc3)cc12,16.9 µM,–,–

# Continued, in another order:
IC50 [1],Compound,inhibition [2],also measured
8.3 µM,O=C(CCl)NCc1c[nH]c2cc(Cl)c(OCc3cccc(C(F)(F)F)c3)cc12,47.9%,–
> 20 µM,O=C(CCl)c1c[nH]c2ccc(OCc3ccc4ccccc4c3)cc12,5.3%,–
5.3 µM,N#C/C(=C\c1c[nH]c2cc(Cl)c(OCC3CCC(F)(F)CC3)cc12)C(N)=O,60.1%,–
> 50 µM,C=CC(=O)NCc1c[nH]c2cc(Cl)c(OCc3ccccc3)cc12,–,–
2.7 µM,O=C(CCl)c1c[nH]c2cc(Cl)c(OCc3ccccc3)cc12,74.6%,–
2.4 µM,COc1cc2[nH]cc(C(=O)CCl)c2cc1OCc1ccc2ccccc2c1,93.9%,–
68.7 µM,N#C/C(=C\c1c[nH]c2cc(Cl)c(OCc3ccc4ccccc4n3)cc12)C(N)=O,–,–
